The values below are quoted from earlier work in patent US20070197640A1, “Certain chemical entities, compositions, and methods” (Cytokinetics, Inc., priority 2005, published 2007).

This series concerns A549 cells. As to conditions: data provided by National Cancer Institute, Developmental Therapeutic Program.
In general, GI50 refers to the concentration at which growth is held to half of that of the control. As to `O=c1[nH]cc(F)c(=O)[nH]1` [5-fluorouracil], the GI50 was 1000 nM. With `CC(=O)O[C@H]1C(=O)[C@@]2(C)[C@H]([C@H](OC(=O)c3ccccc3)[C@]3(O)C[C@H](OC(=O)[C@H](O)[C@@H](NC(=O)c4ccccc4)c4ccccc4)C(C)=C1C3(C)C)[C@]1(OC(C)=O)CO[C@@H]1C[C@@H]2O` [paclitaxel], the GI50 was 4 nM.

For the compound `COc1cccc2c1C(=O)c1c(O)c3c(c(O)c1C2=O)C[C@@](O)(C(=O)CO)C[C@@H]3O[C@H]1C[C@H](N)[C@H](O)[C@H](C)O1` [doxorubicin], the GI50 is 63 nM. For the compound `NC(=O)NO` [hydroxyurea], the GI50 is 500000 nM.
